These results are taken from PubChem BioAssay AID463226 (The Scripps Research Institute Molecular Screening Center, 2010).

Active and inactive are the calls of the source. No rule for the calls is given here.

The assay addresses Serine/threonine-protein phosphatase PP1-beta catalytic subunit (Homo sapiens) (UniProt P62140). Briefly: PubChem AID 463226. As to conditions: purified PP1, 33P-phosphohistone dephosphorylation, scintillation.

Serine/threonine-protein phosphatase PP1-beta catalytic subunit (Homo sapiens), sequence (P62140 whole entry, looked up): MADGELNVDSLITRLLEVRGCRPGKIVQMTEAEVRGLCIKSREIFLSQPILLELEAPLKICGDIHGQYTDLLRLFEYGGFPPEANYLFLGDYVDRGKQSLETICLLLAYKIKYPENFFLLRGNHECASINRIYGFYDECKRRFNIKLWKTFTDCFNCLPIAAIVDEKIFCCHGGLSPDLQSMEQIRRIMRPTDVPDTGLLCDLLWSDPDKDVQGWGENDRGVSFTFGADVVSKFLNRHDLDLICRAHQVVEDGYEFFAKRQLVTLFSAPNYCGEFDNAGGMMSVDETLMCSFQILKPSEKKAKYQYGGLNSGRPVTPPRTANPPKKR

By IC50 is commonly meant the concentration that gives 50% inhibition. On to `O=C(O)c1n[nH]nc1-c1ccccc1`, for which the IC50 entry was “inactive”.

Take `O=C(O)C1C2CCC(O2)C1C(=O)NC1CCCCC1` (configuration not stated): the concentration for half-maximal inhibition (IC50) is 23.2 µM.
